Experimental data: patent publication US11866405B2, “Substituted indazoles as IRAK4 inhibitors” (AstraZeneca AB, priority 2020, dated 2024)
Read-outs that look alike come from different tables or passages of the source.

Tests used:
[1] = tested on: human PBMCs stimulated with LPS; test: LPS-induced cytokine release in human PBMCs; type: cell-based; conditions: PBMC, 0.11 ng/mL LPS, 4 h
From the text: (§1) In Vitro Effect of IRAK4 Inhibitors on LPS- and IL-1β-Induced Cytokine Release in Human PBMCs
(§2) To evaluate the effect and potency of IRAK4 inhibitors on blocking disease-relevant pathways in human primary immune cells, we stimulated human PBMCs (peripheral blood mononuclear cells) with LPS (TLR4 agonist) or IL-1β (IL-1R ligand) and measured the release of the proinflammatory cytokines IL-6 and TNF-α. Briefly, PBMCs were isolated from human blood, donated from healthy individuals, using LymphoPrep density gradient and plated at a cell density of 200 000 cells/well (for LPS assay) or 300 000 cells/well (for IL-1β assay) in 96-well culture plates. Cells were incubated for 1 h with serial dilutions of IRAK4 inhibitor or vehicle (DMSO) prior to stimulation of cells with 0.11 ng/mL LPS (derived from E. coli) or 1 ng/mL recombinant human IL-1β. After 4 h of LPS stimulation or 20 h of […] stimulation, the supernatant was collected and the levels of the proinflammatory cytokines TNF-α, IL-8 and IL-6 were measured by Mesoscale Discovery (MSD) multiplex assay. Dose-response curves were plotted and IC50 values were calculated with 4-parameter curve fit using GraphPad Prism 8 (see Table 3).

[2] = tested on: LPS-induced lung inflammation; test: Mouse model of LPS-induced airway inflammation; type: in vivo; conditions: mice, 5, 15 and 50 mg/kg oral, inhaled LPS 1 mg/mL, 4 h after challenge
Description: FIG. 1. In vivo dose response of Example 89 in an acute mouse model of LPS-induced lung inflammation. Example 89 compound was dosed orally to mice 1 h prior to inhaled LPS challenge (1 mg/mL). 4 h after the challenge, the animals were terminated and the levels of IL-6 and TNF-α released in the bronchoalveolar lavage fluid were measured. […] Individual data points represent individual animals, and bars represent the mean value of each group. Statistical differences between groups were calculated with a one-way ANOVA test comparing treatment groups to the vehicle group. **p<0.01, ***p<0.001. The ability of IRAK4 inhibitors according to the specification to reduce inflammatory cytokines and TNF-α in vivo is thus established.
In Vivo Effect of IRAK4 Inhibition in a Mouse Model of LPS-Induced Airway Inflammation
TLRs act as a first sensor of microbes and allergens in the airways and can mediate a rapid inflammatory response. A mouse model of inhaled LPS challenge was used to study the effect of IRAK4 inhibition on the processes of an acute TLR4-driven airway inflammation. […] The levels of proinflammatory cytokines were measured in the BALF supernatant using MSD multiplex assay 8 mice per treatment group were used, except for the LPS/vehicle group where 20 mice were used. […]

[3] = tested on: human PBMCs stimulated with IL-1β; test: IL-1β-induced cytokine release in human PBMCs; type: cell-based; conditions: PBMC, 1 ng/mL IL-1β, 20 h
From the text: as §1, §2

[4] = tested on: IL-1β stimulated IL-8 release in hTHP1 cells; test: IL-1β-induced IL-8 release in human THP-1 monocyte cell line; type: cell-based; conditions: Homo sapiens, THP-1, 18 h, THP-1 cells, IL-1β 1.8 ng/mL, geometric mean of at least n=2, * n = 1, read-out: hTHP1, IL1β stim, IL8 release red. IC50

COc1cc2nn([C@@H]3CC[C@@H](O)C[C@H]3C)cc2cc1C(=O)Nc1cnc2cccnn12 [Example 89, 2-((1R,2R,4R)-4-hydroxy-2-methylcyclohexyl)-N-(imidazo[1,2-b]pyridazin-3-yl)-6-methoxy-2H-indazole-5-carboxamide]
IC50 ([1]; read-out: IC50, IL-6 read-out, LPS stimulation): 32 nM | IC50 ([1]; read-out: IC50, TNF-α read-out, LPS stimulation): 39 nM | levels of IL-6 in bronchoalveolar lavage fluid [2]: reduced the levels of IL-6 and TNF-α upon inhaled LPS challenge, in a dose-dependent manner | levels of TNF-α in bronchoalveolar lavage fluid [2]: reduced the levels of IL-6 and TNF-α upon inhaled LPS challenge, in a dose-dependent manner | IC50 ([3]; read-out: IC50, IL-6 read-out, IL-1β stimulation): 22 nM | IC50 ([3]; read-out: IC50, IL-8 read-out, IL-1β stimulation): 30 nM | IC50 [4]: 31 nM
